Assay results as given in patent US20210277015A1, “OGA INHIBITOR COMPOUNDS” (Janssen Pharmaceutica NV, priority 2018, published 2021).

Tests used:
[1] = biological target: T1, recombinant human Meningioma Expressed Antigen 5 (MGEA5), also referred to as O-GlcNAcase (OGA) (Homo sapiens, UniProt O60502); assay: OGA biochemical assay (inhibition of FM-GlcNAc hydrolysis, fluorescence); conditions: FM-GlcNAc substrate; for IC50: 6 h at room temperature, read-out: Enzymatic hOGA, pIC50 (converted); for Emax / Enzymatic Emax (%): maximal effect; for Emax: read-out: Enzymatic Emax (%)
T1 construct: Full length OGA enzyme was purchased at OriGene (cat #TP322411); purchased OriGene TP322411
T1 sequence (O60502 1-916): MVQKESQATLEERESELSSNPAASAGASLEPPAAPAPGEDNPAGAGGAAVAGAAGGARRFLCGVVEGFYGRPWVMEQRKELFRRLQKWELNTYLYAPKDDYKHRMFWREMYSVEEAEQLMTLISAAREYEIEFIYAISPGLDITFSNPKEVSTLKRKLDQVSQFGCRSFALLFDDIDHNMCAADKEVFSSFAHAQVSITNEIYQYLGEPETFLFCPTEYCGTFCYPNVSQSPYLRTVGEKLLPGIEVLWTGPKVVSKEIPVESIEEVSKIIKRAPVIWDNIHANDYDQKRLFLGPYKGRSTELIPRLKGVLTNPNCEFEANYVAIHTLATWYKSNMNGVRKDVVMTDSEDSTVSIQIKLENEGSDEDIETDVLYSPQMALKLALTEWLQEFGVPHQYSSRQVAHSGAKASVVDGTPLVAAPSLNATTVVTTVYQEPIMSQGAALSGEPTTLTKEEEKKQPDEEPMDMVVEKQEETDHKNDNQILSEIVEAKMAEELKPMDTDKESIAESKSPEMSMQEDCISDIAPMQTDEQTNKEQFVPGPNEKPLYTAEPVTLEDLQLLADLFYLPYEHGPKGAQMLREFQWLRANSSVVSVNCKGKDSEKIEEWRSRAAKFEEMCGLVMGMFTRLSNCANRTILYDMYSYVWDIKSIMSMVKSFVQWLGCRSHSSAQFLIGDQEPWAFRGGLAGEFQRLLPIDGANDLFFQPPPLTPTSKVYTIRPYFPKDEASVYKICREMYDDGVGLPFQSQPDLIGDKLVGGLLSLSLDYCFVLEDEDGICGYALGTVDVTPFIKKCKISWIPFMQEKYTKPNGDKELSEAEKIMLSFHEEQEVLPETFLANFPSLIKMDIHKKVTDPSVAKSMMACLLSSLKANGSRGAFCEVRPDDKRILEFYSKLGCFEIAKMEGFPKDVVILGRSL
Method in brief: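 Full-length human OGA (2 nM) pre-incubated 60 min at room temperature with compound, then FM-GlcNAc (100 µM final) added in citrate/phosphate buffer pH 7.2 with 0.005% Tween-20; 6 h at room temperature, stopped with carbonate pH 11.0. Fluorescein read at 485/538 nm; IC50 and Hill coefficient from curve fit.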

OGA = biological target: T2, OGA (Homo sapiens, UniProt O60502); assay: OGA cellular assay (ICC detection of O-GlcNAcylated proteins in HEK293 cells inducible for P301L mutant human Tau); assay type: cell-based; conditions: for Emax: HEK293, HEK293 cells inducible for P301L mutant human Tau; for Emax / Cellular Emax (%): maximum defined by Thiamet G at 200 uM; for EC50 / Cellular Emax (%) / Cellular hOGA; pEC50: HEK293 cells inducible for P301L mutant human Tau; for EC50 / Cellular hOGA; pEC50: 6 hours incubation, ICC O-GlcNAcylation; for EC50: read-out: Cellular hOGA, pEC50 (converted)
T2 construct: endogenous in cells; host or cells: HEK293 cells inducible for P301L mutant human Tau (isoform 2N4R)
T2 sequence (O60502 1-916): T1 sequence (O60502 1-916)
Experimental: HEK293 cells inducible for P301L mutant human Tau (isoform 2N4R) were established at Janssen. Thiamet-G was used for both plate validation (high control) and as reference compound (reference EC50 assay validation). OGA inhibition is evaluated through the immunocytochemical (ICC) detection of O-GlcNAcylated proteins by the use of a monoclonal antibody (CTD110.6; Cell Signaling, #9875) detecting O-GlcNAcylated residues as previously described (Dorfmueller et al. 2010 Chemistry & biology, 17:1250). Inhibition of OGA will result in an increase of O-GlcNAcylated protein levels resulting in an increased signal in the experiment. Cell nuclei are stained with Hoechst to give a cell culture quality control and a rough estimate of immediate compounds toxicity, if any. ICC pictures are imaged with a Perkin Elmer Opera Phenix plate microscope and quantified with the provided software Perkin Elmer Harmony 4.1.
Cells were propagated in DMEM high Glucose (Sigma, #D5796) following standard procedures. 2 days before the cell assay cells are split, counted and seeded in Poly-D-Lysine (PDL) coated 96-wells (Greiner, #655946) plate at a cell density of 12,000 cells per cm^2 (4,000 cells per well) in 100 μl of Assay Medium (Low Glucose medium is used to reduce basal levels of GlcNAcylation) (Park et al. 2014 The Journal of biological chemistry 289:13519). At the day of compound test medium from assay plates was removed and replenished with 90 μl of fresh Assay Medium. 10 μl of compounds at a 10 fold final concentration were added to the wells. Plates were centrifuged shortly before incubation in the cell incubator for 6 hours. DMSO concentration was set to 0.2%. Medium is discarded by applying vacuum. For staining of cells medium was removed and cells washed once with 100 μl D-PBS (Sigma, #D8537). From next step onwards unless other stated assay volume was always 50 μl and incubation was performed without agitation and at room temperature. Cells were fixed in 50 μl of a 4% paraformaldehyde (PFA, Alpha aesar, #043368) PBS solution for 15 minutes at room temperature. […] Before analysis samples were washed 2 times manually for 5 minutes in ICC base buffer.
Imaging is performed using Perkin Elmer Phenix Opera using a water 20× objective and recording 9 fields per well. Intensity readout at 488 nm is used as a measure of O-GlcNAcylation level of total proteins in wells. To assess potential toxicity of compounds nuclei were counted using the Hoechst staining. IC50-values are calculated using parametric non-linear regression model fitting. As a maximum inhibition Thiamet G at a 200 uM concentration is present on each plate. In addition, a concentration response of Thiamet G is calculated on each plate.

Row | IC50 [1] | Emax [1] | Emax (OGA) | EC50 (OGA) | Enzymatic Emax (%) [1] | Cellular Emax (%) (OGA) | Cellular hOGA; pEC50 (OGA) | Structure (SMILES)
1 | 158 nM | 97% | 20% | > 1000 nM | – | – | – | Cc1cc(C[C@@H]2CCN(C(C)c3cnc4c(c3)OCCO4)C2)cc(C)n1 (mixture of isomers) [Product 116]
2 | 2510 nM | 83% | 8% | > 1000 nM | – | – | – | Cc1ccc(O[C@H]2CCN(C(C)c3ccc4c(n3)OCCO4)C2)cn1 (some centres unmarked) [Product 56]
3 | > 10000 nM | – | – | – | 21% | −8% | <6 | Cc1cc(O[C@H]2CCN(C(C)c3ccc4c(n3)OCCO4)C2)cc(C)n1 (single isomer, unassigned) [Product 72]
4 | 794 nM | – | – | > 1000 nM | 91% | 6% | – | Cc1cc(C[C@@H]2CCN([C@H](C)c3ccc4c(n3)OCCO4)C2)cc(C)n1 (single isomer, unassigned) [Product 105]
5 | 12.6 nM | 101% | 90% | 126 nM | – | – | – | COc1cc(C[C@@H]2CCN(C(C)c3nc4c(cc3F)OCCO4)C2)cc(C)n1 (mixture of isomers) [Product 90]
6 | 39.8 nM | – | – | – | 99% | 34% | <6 | Cc1cc(O[C@@H]2CCN(C(C)c3ccc4c(n3)OCCO4)C2)cc(C)n1 (single isomer, unassigned) [Product 75]
7 | 15.8 nM | 99% | 60% | 316 nM | – | – | – | Cc1cc(C[C@@H]2CCN(C(C)c3cc4c(cc3F)NCCO4)C2)cc(C)n1 (mixture of isomers) [Product 117]
8 | 63.1 nM | 100% | – | 631 nM | – | 51% | – | Cc1cc(C[C@@H]2CCN([C@H](C)c3ccc4c(n3)OCCO4)C2)cc(C)n1 (single isomer, unassigned) [Product 104]
9 | 100 nM | 94% | 73% | 501 nM | – | – | – | Cc1ncc(O[C@@H]2CCN(C(C)c3nc4c(cc3F)OCCO4)C2)nc1C (some centres unmarked) [Product 126]
10 | 5.01 nM | 102% | 89% | 31.6 nM | – | – | – | COc1cc(C[C@H]2CCN(C(C)c3nc4c(cc3F)CCO4)C2)cc(C)n1 (mixture of isomers) [Product 83]
11 | 3.16 nM | 102% | 100% | 15.8 nM | – | – | – | COc1cc(C[C@H]2CCN(C(C)c3nc4c(cc3F)CCO4)C2)cc(C)n1 (single isomer, unassigned) [Product 84]
12 | 1260 nM | – | – | > 1000 nM | 90% | −6% | – | COc1cc(C[C@@H]2CCN([C@H](C)c3ccc4c(n3)OCCO4)C2)cc(C)n1 (single isomer, unassigned) [Product 107]
13 | 79.4 nM | 100% | – | – | – | 47% | – | COc1cc(C[C@@H]2CCN([C@H](C)c3ccc4c(n3)OCCO4)C2)cc(C)n1 (single isomer, unassigned) [Product 106]
14 | 158 nM | 101% | 50% | 741 nM | – | – | – | COc1cc(C[C@H]2CCN(C(C)c3ccc4c(n3)OCCC4)C2)cc(C)n1 (mixture of isomers) [Product 86]
15 | 794 nM | – | – | > 1000 nM | 99% | 9% | – | Cc1cc(O[C@H]2CCN(C(C)c3ccc4c(n3)OCCO4)C2)cc(C)n1 (single isomer, unassigned) [Product 71]

Continued, molecule first:

Row | Structure (SMILES) | IC50 [1] | Emax [1] | Emax (OGA) | EC50 (OGA) | Enzymatic Emax (%) [1] | Cellular Emax (%) (OGA) | Cellular hOGA; pEC50 (OGA)
16 | Cc1cc(C[C@@H]2CCN(C(C)c3cnc4c(c3)OCCO4)C2)cc(C)n1 (single isomer, unassigned) [Product 35] | 7940 nM | – | – | > 1000 nM | 54% | −6% | –
17 | COc1cc(C[C@@H]2CCN([C@@H](C)c3cc4c(cc3F)OCCO4)C2)cc(C)n1 [Product 43] | 15.8 nM | 102% | 68% | 398 nM | – | – | –
18 | Cc1cc(OC[C@H]2CCN(C(C)c3ccc4c(n3)OCCO4)C2)cc(C)n1 (some centres unmarked) [Product 47] | 631 nM | 97% | 9% | > 1000 nM | – | – | –
19 | Cc1cc(O[C@@H]2CCN(C(C)c3nc4c(cc3F)OCCO4)C2)cc(C)n1 (single isomer, unassigned) [Product 40] | 7.94 nM | 100% | – | 158 nM | – | 84% | –
20 | Cc1cc(O[C@@H]2CCN(C(C)c3nc4c(cc3F)OCCO4)C2)cc(C)n1 (single isomer, unassigned) [Product 41] | 1580 nM | – | – | > 1000 nM | 87% | −13% | –
21 | COc1cc(C[C@H]2CCN(C(C)c3cc4c(cc3F)OCCO4)C2)cc(C)n1 (single isomer, unassigned) [Product 10] | 1580 nM | 88% | – | > 1000 nM | – | −5% | –
22 | COc1cc(OC[C@@H]2CCN(C(C)c3ccc4c(n3)OCCO4)C2)cc(C)n1 (some centres unmarked) [Product 48] | 1000 nM | 91% | 1% | > 1000 nM | – | – | –
23 | Cc1cc(O[C@@H]2CCN(C(C)c3nc4c(cc3F)OCCO4)C2)cc(C)n1 (some centres unmarked) [Product 39] | 10 nM | – | – | 251 nM | 100% | 74% | –
24 | COc1cc(C[C@H]2CCN(C(C)c3cnc4c(c3)OCCN4)C2)cc(C)n1 (some centres unmarked) [Product 20] | 79.4 nM | 101% | 61% | 501 nM | – | – | –
25 | Cc1cc(C[C@H]2CCN([C@@H](C)c3ccc4c(c3)OCC4)C2)cc(C)n1 (single isomer, unassigned) [Product 14] | 50.1 nM | 103% | 74% | 126 nM | – | – | –
26 | Cc1cc(C[C@H]2CCN(C(C)c3cc4c(cc3F)OCCO4)C2)cc(C(F)(F)F)n1 (some centres unmarked) [Product 7] | 20 nM | 102% | 79% | 398 nM | – | – | –
27 | COc1cc(C[C@H]2CCN(C(C)c3ccc4c(c3)OCC4)C2)cc(C)n1 (some centres unmarked) [Product 8] | 126 nM | 101% | 58% | 794 nM | – | – | –
